# Measured values: patent US4031198A, “Technetium-labeled complexes, production and use thereof” (priority 1974, dated 1977)
# Legend:
# [1] = Partition coefficient of Tc complexes, water/n-octyl alcohol, by radioactivity; type: physicochemical; conditions: water/n-octanol
# Excerpt: These partition coefficient studies involve plotting pH vs. The natural logarithm of the ratio of the activity in water to the activity in normal octyl alcohol, hereinafter referred to as ln(aw /ao). In the pH range of 5 to 8, the complex should not be so lipophilic as to have an ln(aw /ao) of less than -2, particularly at the higher pH levels. On the other hand, the hydrophilicity must also be kept within limits, as the following table illustrates:
# Acid, salt, hydroxyl, amino or other polar groups present on the complexing agent molecule can provide a water solubilizing or hydrophilic effect which is reflected in higher ln aw /ao values, but due regard must be accorded to the variety of fluids, organs and tissues in mammals, each of which can have a distinctively acidic or basic environment, ranging from, for example, the low pH of the stomach to the relatively high pH of the intestines. The blood is on the mildly alkaline side at pH = 7.4. Thus, partition coefficient data on the Tc-complexes of this invention are preferably obtained throughout the pH range of 5 to 8. The use of partition coefficient data in pharmacology is well-established; see Andrejus Korolkvas, Essentials of Molecular Pharmacology, Wiley (interscience), N.Y., N.Y., 1970. […] Natural logarithms of partition coefficients are tabulated in several of the Examples which follow.
# Partition coefficients for the Tc-DHT complex of this Example were determined with a water/n-octyl alcohol system over the pH range of 5 to 8 using radioactive measurements to determine the amount of Tc-99m in each phase. The expression aw /ao is the ratio of the activity in water to the activity in n-octyl alcohol. For comparison, partition coefficients over the same pH range were determined for sodium 99m pertechnetate and cysteine (HS-CH2 CH(NH2)COOH).
# The aw /ao ratios for the 99mTc-4-mercaptobutanol complex were determined as in Example 1, except that two independently determined ln(aw /ao) vs. pH plots were averaged.
# The aw /ao ratios for the Tc 99m complex of this Example were determined as in Example 1. The results (ln data accurate to ± 0.5) were as follows:
# A series of Tc-99m complexes were made by reducing NaTcO4 and reacting the reduced Tc-99m species with the following aliphatic mercapto alcohols:
# Partition coefficients were determined as in Examples 1, 3, and 5 in Tables II, III, and VI.
# [2] = In vivo study of liver or gall-bladder specificity
SMILES,"Ln of partition coefficient, ln(aw /ao) ([1]; pH 5)","Ln of partition coefficient, ln(aw /ao) ([1]; pH 6)","Ln of partition coefficient, ln(aw /ao) ([1]; pH 7)","Ln of partition coefficient, ln(aw /ao) ([1]; pH 8)",logD ([1]; pH 5),logD ([1]; pH 6),logD ([1]; pH 7),logD ([1]; pH 8),liver or gall-bladder specificity [2]
OCCS [2-mercapto-ethanol],-0.9,-0.8,-0.7,-0.6,–,–,–,–,–
OCCCS [3-mercapto propanol],-0.5,-0.4,-0.3,-0.2,–,–,–,–,–
CC(C)(O)CCS [4-mercapto-2-methyl-2-butanol],–,–,–,–,1,1.1,1.2,1.3,–

# More lines, main results first:
"Ln of partition coefficient, ln(aw /ao) ([1]; pH 5)","Ln of partition coefficient, ln(aw /ao) ([1]; pH 6)","Ln of partition coefficient, ln(aw /ao) ([1]; pH 7)","Ln of partition coefficient, ln(aw /ao) ([1]; pH 8)",logD ([1]; pH 5),logD ([1]; pH 6),logD ([1]; pH 7),logD ([1]; pH 8),SMILES,liver or gall-bladder specificity [2]
–,–,–,–,-0.2,-0.1,-0.1,0,OCCCCCS [5-mercapto pentanol],–
+3.2,+3.3,+3.5,+3.6,–,–,–,–,"[Na+].[O]=[99Tc](=[O])(=[O])[O-] [Na99mTcO4, sodium 99m pertechnetate, reference compound]",insufficient liver or gall-bladder specificity
